From US20230099822A1, “MR1 LIGANDS AND PHARMACEUTICAL COMPOSITIONS FOR IMMUNOMODULATION” (UNIVERSITÄT BASEL, priority 2020, published 2023)

Experiments:
[1] = molecular target: T1, MR1 surface expression on THP-1 MR1 cells (Homo sapiens, UniProt Q95460); assay: Cell surface MR1 modulation on APCs (flow cytometry, anti-MR1 mAb 26.5); assay type: cell-based; conditions: for cell surface MR1 upregulation on APCs (in words): pulsed APC / THP1-MR1 cells
T1 construct: expressed in transfected cells; host or cells: THP-1 (ATCC TIB-202) stably expressing MR1 (THP1-MR1)
T1 sequence (Q95460 23-341): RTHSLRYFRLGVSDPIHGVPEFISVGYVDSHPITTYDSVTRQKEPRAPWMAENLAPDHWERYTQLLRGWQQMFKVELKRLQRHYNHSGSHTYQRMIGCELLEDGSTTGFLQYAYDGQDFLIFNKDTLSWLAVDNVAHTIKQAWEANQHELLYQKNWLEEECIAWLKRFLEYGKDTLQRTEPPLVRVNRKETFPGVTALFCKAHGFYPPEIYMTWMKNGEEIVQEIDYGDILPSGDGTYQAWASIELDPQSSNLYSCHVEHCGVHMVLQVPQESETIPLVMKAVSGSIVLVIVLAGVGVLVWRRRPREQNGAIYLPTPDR
T1 sequence (P61769 21-119 partner): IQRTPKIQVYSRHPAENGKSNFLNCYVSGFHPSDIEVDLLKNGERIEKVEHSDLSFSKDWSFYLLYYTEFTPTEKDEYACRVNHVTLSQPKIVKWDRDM
Experimental: […] […] For each condition, net MFI was calculated subtracting isotype MFI from anti-MR1 MFI and fold change of cells treated with synthetic molecules over cells treated with vehicle was calculated.

[2] = test system: MR1T cell clones; assay: MR1T cell activation assay with THP-1 cells incubated with compounds (cytokine ELISA); assay type: cell-based, human; conditions: for number of MR1T clones significantly stimulated: fourteen randomly selected MR1T clones, THP-1 cells, IFN-γ (FIG. 12B); for activation of MR1T clone MCA3C3 (IFN-γ): THP-1 cells pre-incubated with 250 μM of molecule (FIG. 8G, right); for activation of MR1T clone DGB129 (IFN-γ): THP-1 cells pre-incubated with 250 μM of molecule (FIG. 8G, middle)
Experimental: MR1T cells (5×10^4/well unless otherwise indicated) were co-cultured with the indicated APCs (10^5 cells per well unless otherwise indicated) for 18 h in 120 μL volume in triplicate.
When nucleobases, nucleosides or nucleotides (all 250 μM) and synthetic compounds M3ADE, OPdA, M1G or OPdC were used to stimulate T cells, the THP-1 cells (10^5/well) were cultured 2 h with the indicated molecules or medium only, prior to T-cell addition. When a single concentration of synthetic antigens was used, 100 μM OPdA, 100 μM OPdC and 13 μM M1G were used for all clones, while 100 μM M3ADE was used for all clones except DGB129, AC1A4, AC1B76 and AVA46 for which 1 μM was used.

[3] = test system: MR1T cell clones; assay: Competition assay for stimulation of MR1T cell clones; assay type: cell-based, human; conditions: APCs with compound 2 h (3 doses), then antigen at optimal concentration, cytokine ELISA
Experimental: As positive control for competition with antigens, Ac-6-FP was used (100 μM). Supernatants were collected after 24 h for cytokine analysis measured by ELISA.

[4] = THP-1 MR1 cells, 3 h at 37° C., 3 doses each

Compound: O=C/C=C/Nc1ncnc2c1ncn2[C@H]1C[C@H](O)[C@@H](CO)O1 (stereo in doubt) [Cmpd 12, N6-(3-oxo-1-propenyl)-2′-deoxyadenosine]
- MRI upregulation [1, 4]: YES
- Reactive T cells isolated [2]: YES

Compound: O=c1[nH]cc([C@@H]2O[C@H](CO)C(O)C2O)c(=O)[nH]1 (stereo in doubt) [Cmpd 36, 5-(3,4-dihydroxy-5-(hydroxymethyl)tetrahydrofuran-2-yl)pyrimidine-2,4(1H,3H)-dione]
- MRI upregulation [1, 4]: YES
- Competition [3]: YES

Compound: O=C/C=C/Nc1ccn([C@H]2C[C@H](O)[C@@H](CO)O2)c(=O)n1 (stereo in doubt) [Cmpd 38, N4-(3-oxo-1-propenyl)-2′-deoxycytidine]
- activation of MR1T clone TC5A87 by adduct [2]: activated
- stimulation of MR1T clone QY1A16 by adduct [2]: stimulated
- number of MR1T clones significantly stimulated [2]: three

Compound: Nc1ncnc2c1ncn2[C@@H]1O[C@H](COP(=O)(O)OP(=O)(O)O)[C@@H](O)[C@H]1O [ADP, reference compound]
- activation of MR1T clone MCA3C3 (IFN-γ) [2]: activated

Compound: Cn1cnc2c(ncn2[C@@H]2O[C@H](CO)[C@@H](O)[C@H]2O)c1=N [Cmpd 1, 1-methyladenosine]
- MRI upregulation [1, 4]: YES
- Competition [3]: YES

Compound: Cc1nc(N)c2ncn([C@@H]3O[C@H](CO)[C@@H](O)[C@H]3O)c2n1 [Cmpd 2, 2-methyladenosine]
- MRI upregulation [1, 4]: YES
- cell surface MR1 upregulation on APCs (in words) [1]: upregulation
- Competition [3]: YES

Compound: CO[C@@H]1[C@H](O)[C@@H](CO)O[C@H]1n1cnc2c(N)ncnc21 [Cmpd 3, 2′-O-methyladenosine]
- MRI upregulation [1, 4]: YES
- Reactive T cells isolated [2]: YES

Compound: CN(C)c1ncnc2c1ncn2[C@@H]1O[C@H](CO)[C@@H](O)[C@H]1O [Cmpd 4, N6,N6-dimethyladenosine]
- MRI upregulation [1, 4]: YES
- Reactive T cells isolated [2]: YES
- compound-specific MR1T cell activation (IFN-γ) ([2]; clones DGB129, MCA2E7 and TC5A87, THP-1 cells, overnight (FIG. 3)): activation

Compound: C/C(=C\CNc1ncnc2c1ncn2[C@@H]1O[C@H](CO)C(O)C1O)CO (stereo partly drawn) [Cmpd 7, N6-(cis-hydroxyisopent-2-enyl) adenosine]
- Competition [3]: YES

Compound: CSc1nc(NC/C=C(\C)CO)c2ncn([C@@H]3O[C@H](CO)C(O)C3O)c2n1 (stereo partly drawn) [Cmpd 8, 2-methylthio-N6-(cis-hydroxyisopent-2-enyl) adenosine]
- MRI upregulation [1, 4]: YES
- Reactive T cells isolated [2]: YES

Compound: CSc1nc(NCC=C(C)C)c2ncn([C@@H]3O[C@H](CO)[C@@H](O)[C@H]3O)c2n1 [Cmpd 9, 2-methylthio-N6-isopent-2-enyladenosine]
- Competition [3]: YES

Compound: O=C/C=C/Nc1ncnc2c1ncn2[C@H]1C[C@H](O)[C@@H](CO)O1 [Cmpd 12, N6-(3-oxo-1-propenyl)-2′-deoxyadenosine]
- activation of MR1T clone AC1A4 by adduct [2]: activated
- activation of MR1T clone TC5A87 by adduct [2]: activated
- stimulation of MR1T clone QY1A16 by adduct [2]: stimulated
- number of MR1T clones significantly stimulated [2]: eight

Compound: CCCCCC(=O)Cc1cnc2c3ncn([C@H]4C[C@H](O)[C@@H](CO)O4)c3ncn12 [Cmpd 14, 1-(3-((2R,4S,5R)-4-hydroxy-5-(hydroxymethyl)tetrahydrofuran-2-yl)-3H-imidazo[2,1-i]purin-7-yl)heptan-2-one]
- MRI upregulation [1, 4]: YES

Compound: Cn1c(N)nc2c(ncn2[C@@H]2O[C@H](CO)[C@@H](O)[C@H]2O)c1=O [Cmpd 15, 1-methylguanosine]
- Competition [3]: YES
- Reactive T cells isolated [2]: YES

Compound: CNc1nc2c(ncn2[C@@H]2O[C@H](CO)[C@@H](O)[C@H]2O)c(=O)[nH]1 [Cmpd 16, N2-methylguanosine]
- MRI upregulation [1, 4]: YES

Compound: C[n+]1cn([C@@H]2O[C@H](CO)[C@@H](O)[C@H]2O)c2nc(N)[nH]c(=O)c21 [Cmpd 17, 7-methylguanosine]
- Competition [3]: YES
- Reactive T cells isolated [2]: YES

Compound: O=c1c2nc[nH]c2nc2ncccn12 [Cmpd 24, pyrimido(1,2-a)purin-10(1H)-one]
- MRI upregulation [1, 4]: YES
- Reactive T cells isolated [2]: YES
- activation of MR1T clone AC1A4 by adduct [2]: activated
- response to THP-1 cells when adduct added ([2]; M1G or M3ADE added to clones QY1A16 and QY1C3, respectively): significant decreased response
- number of MR1T clones significantly stimulated [2]: three

Compound: CCCCCC(=O)Cc1c[nH]c2nc3c(ncn3[C@H]3C[C@H](O)[C@@H](CO)O3)c(=O)n12 [Cmpd 25, 3-((2R,5R)-4-hydroxy-5-(hydroxymethyl)tetrahydrofuran-2-yl)-7-(2-oxoheptyl)-3H-imidazo[1,2-a]purin-9(5H)-one]
- MRI upregulation [1, 4]: YES

Compound: O=C/C=C/Nc1ccn([C@H]2C[C@H](O)[C@@H](CO)O2)c(=O)n1 [Cmpd 38, N4-(3-oxo-1-propenyl)-2′-deoxycytidine]
- MRI upregulation [1, 4]: YES

Compound: CSc1ncnc2c1ncn2[C@@H]1O[C@H](CO)[C@@H](O)[C@H]1O [Cmpd 40, (2R,3S,4R,5R)-2-(hydroxymethyl)-5-(6-(methylthio)-9H-purin-9-yl)tetrahydrofuran-3,4-diol]
- MRI upregulation [1, 4]: YES
- Reactive T cells isolated [2]: YES

Compound: Cn1c(N)nc2[nH]cnc2c1=O [Cmpd 47, 1-Methylguanine]
- MRI downmodulation [1, 4]: YES

Compound: CNc1nc2c(ncn2[C@H]2C[C@H](O)[C@@H](CO)O2)c(=O)[nH]1 [Cmpd 48, N2-Methyl-2′-deoxyguanosine]
- MRI upregulation [1, 4]: YES

Compound: CSC[C@H]1O[C@@H](n2cnc3c(N)ncnc32)[C@H](O)[C@@H]1O [Cmpd 52, 5′-Deoxy-5′-(methylthio)adenosine]
- Competition [3]: YES

Compound: CNc1ncnc2c1ncn2[C@H]1C[C@H](O)[C@@H](CO)O1 [Cmpd 53, N6-Methyl-2′-deoxyadenosine]
- Reactive T cells isolated [2]: YES

Compound: OCCNc1ncnc2c1ncn2[C@H]1C[C@H](O)[C@@H](CO)O1 [Cmpd 54, N6-(2-Hydroxyethyl)-2′-deoxyadenosine]
- Reactive T cells isolated [2]: YES

Compound: CC(=O)C=O [MG, methylglyoxal, reference compound]
- MR1T-cell stimulation by GLO1-deficient compared to wild-type THP-1 cells ([2]; clone DGB129, Methylglyoxal (FIG. 9I)): significantly increased
- MR1T-cell stimulation with GLO1-overexpressing THP-1 cells ([2]; clone DGB129, Methylglyoxal (FIG. 9J)): failed to induce

Compound: CN(C)c1ncnc2c1ncn2[C@@H]1O[C@H](CO)[C@@H](O)[C@H]1O [N6,N6-dimethyladenosine]
- cell surface MR1 upregulation on APCs (in words) [1]: upregulation

Compound: Nc1ncnc2nc[nH]c12 [adenine, reference compound]
- activation of MR1T clone DGB129 (IFN-γ) [2]: reacted

Compound: Nc1ncnc2c1ncn2[C@@H]1O[C@H](CO)[C@@H](O)[C@H]1O [adenosine, reference compound]
- activation of MR1T clone DGB129 (IFN-γ) [2]: reacted

Compound: Nc1ncnc2c1ncn2[C@H]1C[C@H](O)[C@@H](CO)O1 [deoxyadenosine, reference compound]
- activation of MR1T clone DGB129 (IFN-γ) [2]: reacted
- MR1T reactivity using GLO1-deficient THP-1 cells as APCs ([2]; clone DGB129, deoxyadenosine (FIG. 9K)): increased
- MR1T reactivity using GLO1-overexpressing THP-1 cells ([2]; clone DGB129, deoxyadenosine (FIG. 9L)): decreased

Compound: Nc1nc2c(ncn2[C@H]2C[C@H](O)[C@@H](CO)O2)c(=O)[nH]1 [deoxyguanosine, reference compound]
- activation of MR1T clone MCA3C3 (IFN-γ) [2]: activated

Compound: Nc1nc2nc[nH]c2c(=O)[nH]1 [guanine, reference compound]
- activation of MR1T clone MCA3C3 (IFN-γ) [2]: activated

Compound: Nc1nc2c(ncn2[C@@H]2O[C@H](CO)[C@@H](O)[C@H]2O)c(=O)[nH]1 [guanosine, reference compound]
- activation of MR1T clone MCA3C3 (IFN-γ) [2]: activated

Compound: OC[C@H]1O[C@@H](n2cnc3c(O)ncnc32)[C@H](O)[C@@H]1O [inosine, reference compound]
- activation of MR1T clone DGB129 (IFN-γ) [2]: reacted

Compound: O=c1[nH]c(=O)c2ncn([C@@H]3O[C@H](CO)[C@@H](O)[C@H]3O)c2[nH]1 [xanthosine, reference compound]
- activation of MR1T clone MCA3C3 (IFN-γ) [2]: activated
